According to patent publication US7265152B2 (ViroPharma Incorporated, priority 2002, dated 2007):
Read-outs that look alike come from different tables or passages of the source.

Key:
[1] = tested on: HCV replicon (BB7 sequence) in Huh-7-Clone A cells; experiment: HCV replicon assay: ELISA of NS5A protein in replicon-containing cells (Inhibition of Viral RNA Replication); format: cell-based; conditions: Hepatitis C virus, read-out: Replicon
Summary of the method: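 EC50 taken from an 8-point serially diluted dose curve, with NS5A level as read-out: fixed cells probed with primary monoclonal and HRP-conjugated secondary, TMB developed 30 min, OD 650 nm. Compound exposure 72 h in Huh-7-Clone A replicon cells (BB7 sequence).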

HCV NS5B = target: T1, HCV NS5B (Hepatitis C virus genotype 1b, UniProt Q9WMX2); experiment: Inhibition of viral RNA-dependent RNA polymerase (RdRp), in vitro biochemical assay; design: species or system HCV genotype 1b virus (BB7); conditions: HCV NS5B RdRp, BB7, read-out: HCV pol-BB7 IC50
T1 construct: fusion protein, of which the carboxyl terminal 21 amino acids were removed to enhance its solubility; His tag (GSHHHHHH); made in house; host or cells: E. coli
Summary of the method: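 IC50 values are the concentrations that halve in vitro RNA synthesis by HCV NS5B polymerase. The enzyme was a C-terminally truncated (Δ21), His-tagged genotype 1b (BB7 consensus) protein purified from E. coli.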

[2] = HCV replicon assay, ranges of EC50

Row | SMILES | EC50 ([1]; HCV replicon, range of EC50) [µM] | IC50 (HCV NS5B; reported as range class) [µM] | EC50 [1, 2] [µM] | IC50 (HCV NS5B; class symbols A-D) [µM]
1 | CNC(=O)c1c(-c2ccc(F)cc2)oc2cc(-c3cc(C)no3)c(OC(C)C)cc12 [Example 233, 2-(4-Fluoro-phenyl)-5-isopropoxy-6-(3-methyl-isoxazol-5-yl)-benzofuran-3-carboxylic acid methylamide] | < 30 | ≤ 0.5 | – | –
2 | CNC(=O)c1c(-c2ccc(F)cc2)oc2cc(N(Cc3nsc(Cl)n3)S(C)(=O)=O)c(OC(C)C)cc12 [Example 234, 6-[(5-Chloro-[1,2,4]thiadiazol-3-ylmethyl)-methanesulfonyl-amino]-2-(4-fluoro-phenyl)-5-isopropoxy-benzofuran-3-carboxylic acid methylamide] | < 10 | ≤ 0.5 | – | –
3 | CNC(=O)c1c(-c2ccc(F)cc2)oc2cc(Nc3c(C)noc3C)c(OC(C)C)cc12 [Example 235, 6-(3,5-Dimethyl-isoxazol-4-ylamino)-2-(4-fluoro-phenyl)-5-isopropoxy-benzofuran-3-carboxylic acid methylamide] | > 30 | 5 to 30 | – | –
4 | CNC(=O)c1c(-c2ccc(F)cc2)oc2cc(-c3cccnc3)c(OC)cc12 [Example 236, 2-(4-Fluoro-phenyl)-5-methoxy-6-pyridin-3-yl-benzofuran-3-carboxylic acid methylamide] | < 1 | ≤ 0.5 | – | –
5 | CNC(=O)c1c(-c2ccc(F)cc2)oc2cc(CN(C)C)c(OC(C)C)cc12 [Example 237, 6-Dimethylaminomethyl-2-(4-fluoro-phenyl)-5-isopropoxybenzofuran 3-carboxylic acid methylamide] | < 30 | 5 to 30 | – | –
6 | CNC(=O)c1c(-c2ccc(F)cc2)oc2cc(C(O)C(C)C)c(OC(C)C)cc12 (stereo not drawn) [Example 238, 2-(4-Fluoro-phenyl)-6-(1-hydroxy-2-methyl-propyl)-5-isopropoxy-benzofuran-3-carboxylic acid methylamide] | < 1 | ≤ 0.5 | – | –
7 | CNC(=O)c1c(-c2ccc(F)cc2)oc2cc(-c3cn[nH]c3)c(OC(C)C)cc12 [Example 239, 2-(4-Fluoro-phenyl)-5-isopropoxy-6-(1H-pyrazol-4-yl)-benzofuran-3-carboxylic acid methylamide] | < 10 | 5 to 30 | – | –
8 | CNC(=O)c1c(-c2ccc(F)cc2)oc2cc(N(CCOC)S(C)(=O)=O)c(OC)cc12 [Example 240, 2-(4-Fluoro-phenyl)-6-[methanesulfonyl-(2-methoxy-ethyl)-amino]-5-methoxy-benzofuran-3-carboxylic acid methylamide] | < 1 | ≤ 0.5 | – | –
9 | CNC(=O)c1c(-c2ccc(F)cc2)oc2cc(-c3cc(C4CC4)no3)c(OC(C)C)cc12 [Example 241, 6-(3-Cyclopropyl-isoxazol-5-yl)-2-(4-fluoro-phenyl)-5-isopropoxy-benzofuran-3-carboxylic acid methylamide] | < 10 | 0.5 to 5 | – | –
10 | CNC(=O)c1c(-c2ccc(F)cc2)oc2cc(-c3cc(COC)no3)c(OC(C)C)cc12 [Example 242, 2-(4-Fluoro-phenyl)-5-isopropoxy-6-(3-methoxymethyl-isoxazol-5-yl)-benzofuran-3-carboxylic acid methylamide] | 30 | 0.5 to 5 | – | –
11 | CNC(=O)c1c(-c2ccc(F)cc2)oc2cc(NS(C)(=O)=O)ccc12 [Example 243, 2-(4-Fluoro-phenyl)-6-methanesulfonylamino-benzofuran-3-carboxylic acid methylamide] | < 10 | 0.5 to 5 | – | –
12 | CNC(=O)c1c(-c2ccc(F)cc2)oc2cc(-c3ncc[nH]3)c(OC(C)C)cc12 [Example 244, 2-(4-Fluoro-phenyl)-6-(1H-imidazol-2-yl)-5-isopropoxy-benzofuran-3-carboxylic acid methylamide] | < 1 | ≤ 0.5 | – | –
13 | CNC(=O)c1c(-c2ccc(F)cc2)oc2cc(-c3cc(C)nn3C)c(OC(C)C)cc12 [Example 245, 6-(2,5-Dimethyl-2H-pyrazol-3-y1)-2-(4-fluoro-phenyl)-5-isopropoxybenzofuran 3-carboxylic acid methylamide] | < 10 | 0.5 to 5 | – | –
14 | CNC(=O)c1c(-c2ccc(F)cc2)oc2cc(-c3c(C)n[nH]c3C)c(OC(C)C)cc12 [Example 246, 6-(3,5-Dimethyl-1H-pyrazol-4-yl)-2-(4-fluoro-phenyl)-5-isopropoxy-benzofuran-3-carboxylic acid methylamide] | < 1 | ≤ 0.5 | – | –
15 | CNC(=O)c1c(-c2ccc(F)cc2)oc2cc(-c3cc(C)n[nH]3)c(OC(C)C)cc12 [Example 247, 2-(4-Fluoro-phenyl)-5-isopropoxy-6-(5-methyl-2H-pyrazol-3-yl)-benzofuran-3-carboxylic acid methylamide] | < 10 | 0.5 to 5 | – | –
16 | CNC(=O)c1c(-c2ccc(F)cc2)oc2cc(-c3cc(C)n(C)n3)c(OC(C)C)cc12 [Example 248, 6-(1,5-Dimethyl-1H-pyrazol-3-yl)-2-(4-fluoro-phenyl)-5-isopropoxy-benzofuran-3-carboxylic acid methylamide] | < 10 | 0.5 to 5 | – | –
17 | CNC(=O)c1c(-c2ccc(F)cc2)oc2cc(CN(C)S(C)(=O)=O)c(OC(C)C)cc12 [Example 249, 2-(4-Fluoro-phenyl)-5-isopropoxy-6-[(methanesulfonyl-methyl-amino)-methyl]-benzofuran-3-carboxylic acid methylamide] | < 10 | ≤ 0.5 | – | –
18 | CNC(=O)c1c(-c2ccc(F)cc2)oc2cc(N3CCOCC3)c(OCC(C)(C)O)cc12 [Example 250, 2-(4-Fluoro-phenyl)-5-(2-hydroxy-2-methyl-propoxy)-6-morpholin-4-ylbenzofuran-3-carboxylic acid methylamide] | – | – | < 10 | 0.5 to 5
19 | CCC(C)(O)COc1cc2c(C(=O)NC)c(-c3ccc(F)cc3)oc2cc1N1CCOCC1 (stereo not drawn) [Example 251, 2-(4-Fluoro-phenyl)-5-(2-hydroxy-2-methyl-butoxy)-6-morpholin-4-yl-benzofuran-3-carboxylic acid methylamide] | – | – | < 10 | 0.5 to 5
20 | CNC(=O)c1c(-c2ccc(F)cc2)oc2cc(N3CCOCC3)c(OCC(C)O)cc12 (stereo not drawn) [Example 252, 2-(4-Fluoro-phenyl)-5-(2-hydroxy-propoxy)-6-morpholin-4-yl-benzofuran-3-carboxylic acid methylamide] | – | – | < 10 | 0.5 to 5
21 | CNC(=O)c1c(-c2ccc(F)cc2)oc2cc(N(CC(C)O)S(C)(=O)=O)c(OC(C)C)cc12 (stereo not drawn) [Example 253, 2-(4-Fluoro-phenyl)-6-[(2-hydroxy-propyl)-methanesulfonyl-amino]-5-isopropoxy-benzofuran-3-carboxylic acid methylamide] | – | – | < 1 | ≤ 0.5
22 | CNC(=O)c1c(-c2ccc(F)cc2)oc2cc(N3CCOCC3)c(OC(C)c3nccs3)cc12 (stereo not drawn) [Example 254, 2-(4-Fluoro-phenyl)-6-morpholin-4-yl-5-(1-thiazol-2-yl-ethoxy)-benzofuran-3-carboxylic acid methylamide] | – | – | < 1 | ≤ 0.5
23 | CCN(c1cc2oc(-c3ccc(F)cc3)c(C(=O)NC)c2cc1OC(C)C)S(C)(=O)=O [Example 255, 6-(Ethyl-methanesulfonyl-amino)-2-(4-fluoro-phenyl)-5-isopropoxy-benzofuran-3-carboxylic acid methylamide] | – | – | < 1 | ≤ 0.5
24 | CNC(=O)c1c(-c2ccc(F)cc2)oc2cc(-c3c(C)n[nH]c3C)c(OC)cc12 [Example 256, 6-(3,5-Diinethyl-1H-pyrazol-4-yl)-2-(4-fluoro-phenyl)-5-methoxy-benzofuran-3-carboxylic acid methylamide] | – | – | < 1 | ≤ 0.5
25 | CNC(=O)c1c(-c2ccc(F)cc2)oc2cc(-c3cn[nH]c3C)c(OC(C)C)cc12 [Example 257, 2-(4-Fluoro-phenyl)-5-isopropoxy-6-(5-methyl-1H-pyrazol-4-yl)-benzofuran-3-carboxylic acid methylamide] | – | – | < 1 | ≤ 0.5
26 | CNC(=O)c1c(-c2ccc(F)cc2)oc2ccc(OCc3cccc(C(=O)OC)c3)cc12 [Example 258, 3-[2-(4-Fluoro-phenyl)-3-methylcarbamoyl-benzofuran-5-yloxymethyl]-benzoic acid methyl ester] | – | – | > 30 | ≤ 0.5
27 | CNC(=O)c1c(-c2ccc(F)cc2)oc2ccc(OCc3ccc(C(=O)O)cc3)cc12 [Example 259, 4-[2-(4-Fluoro-phenyl)-3-methylcarbamoyl-benzofuran-5-yloxymethyl]-benzoic acid] | – | – | < 30 | 0.5 to 5
28 | CNC(=O)c1c(-c2ccc(F)cc2)oc2ccc(OCc3cccc(C(=O)O)c3)cc12 [Example 260, 3-[2-(4-Fluoro-phenyl)-3-methylcarbamoyl-benzofuran-5-yloxymethyl]-benzoic acid] | – | – | > 30 | ≤ 0.5
29 | CNC(=O)c1c(-c2ccc(F)cc2)oc2cc(C(C)=O)c(OC)cc12 [Example 261, 6-Acetyl-2-(4-fluoro-phenyl)-5-methoxy-benzofuran-3-carboxylic acid methylamide] | – | – | < 1 | ≤ 0.5
30 | CNC(=O)c1c(-c2ccc(F)cc2)oc2cc(N3CCOCC3)c(OCc3ccc(C(=O)OC)cc3)cc12 [Example 262, 4-[2-(4-Fluoro-phenyl)-3-methylcarbamoyl-6-morpholin-4-yl-benzofuran-5-yloxymethyl]-benzoic acid methyl ester] | – | – | < 10 | ≤ 0.5
